Laboratory results published in patent publication US20220143148A1, “COMPOSITIONS AND METHODS FOR MODULATING CGRP SIGNALING TO REGULATE INTESTINAL INNATE LYMPHOID CELLS” (The Broad Institute, Inc., priority 2019, published 2022).

Test system: intestinal KLRG1+ ILC2s
Experiment: Bulk ATAC-seq of intestinal KLRG1+ ILC2s stimulated in vitro
Assay type: cell-based, mouse
Details: α-CGRP stimulation alone
Description: ILC2 culture. Sort-purified intestinal KLRG1^+ ILC2s were incubated in RPMI supplemented with 10% FCS, 10 mM Hepes, 1 mM sodium pyruvate, 10% FBS, 80 μm 2-mercaptoethanol, 2 mM glutamine, 100 U/ml penicillin, […] streptomycin, 100 ng/ml IL-2 and 100 ng/ml IL-7 in 96-well round bottom plate at 37° C. and 5% CO2. If indicated, the culture was supplemented with 100 ng/ml IL-25. For the in vitro proliferation assay, cells from different mice were pooled and labeled with CellTrace Violet, and then cultured at 1,000-1,500 cells per well with 10 μg/ml α-CGRP for 60 hours. When indicated, 10 μM forskolin or 1 μM SQ 22, 536 in DMSO was supplied and cells were cultured for 40 hours. […]
Bulk ATAC-seq. […] The library was amplified for 11 cycles, purified with Zymo DNA clean (Zymo Research), and sequenced on an Illumina Next-seq platform using 75 cycle Nextseq 500 high output V2 kit (Read 1: 38 cycles, Index 1: 8 cycles, Index 2: 8 cycles, Read 2: 38 cycles).
The reads were trimmed and aligned to the mouse reference genome (mm9) with Bowtie2 aligner (Langmead and Salzberg, 2012) using the option-X2000. Then, Applicants discarded reads with alignment quality<Q30, improperly paired, mapped to the unmapped contigs, chrY, and mitochondria. […] Peak summits were extended by ±250 bp, and fragment counts in peaks were calculated using chromVAR (Schep et al., 2017) (version: 1.1.1). […]

α-CGRP: neuropeptide alpha-calcitonin gene-related peptide, encoded by exon 5 of Calca; administered as peptide
regions of increased chromatin accessibility: enriched for gene loci involved in the adenylate cyclase pathway
